Measured values as given in ChEMBL document CHEMBL1201862, “PubChem BioAssay data set” (2004).
Activity calls are given as the source filed them.

Legend:
[1] = target: T1, Short transient receptor potential channel 4 (Mus musculus, UniProt Q9QUQ5); experiment: potentiation of DAMGO-evoked TRPC4 calcium signal – cell-based, HEK293 TRPC4/mu-opioid, Fluo-4 calcium, EC20 DAMGO, dose response (AID 434941); type: functional
T1 sequence (Q9QUQ5 whole entry): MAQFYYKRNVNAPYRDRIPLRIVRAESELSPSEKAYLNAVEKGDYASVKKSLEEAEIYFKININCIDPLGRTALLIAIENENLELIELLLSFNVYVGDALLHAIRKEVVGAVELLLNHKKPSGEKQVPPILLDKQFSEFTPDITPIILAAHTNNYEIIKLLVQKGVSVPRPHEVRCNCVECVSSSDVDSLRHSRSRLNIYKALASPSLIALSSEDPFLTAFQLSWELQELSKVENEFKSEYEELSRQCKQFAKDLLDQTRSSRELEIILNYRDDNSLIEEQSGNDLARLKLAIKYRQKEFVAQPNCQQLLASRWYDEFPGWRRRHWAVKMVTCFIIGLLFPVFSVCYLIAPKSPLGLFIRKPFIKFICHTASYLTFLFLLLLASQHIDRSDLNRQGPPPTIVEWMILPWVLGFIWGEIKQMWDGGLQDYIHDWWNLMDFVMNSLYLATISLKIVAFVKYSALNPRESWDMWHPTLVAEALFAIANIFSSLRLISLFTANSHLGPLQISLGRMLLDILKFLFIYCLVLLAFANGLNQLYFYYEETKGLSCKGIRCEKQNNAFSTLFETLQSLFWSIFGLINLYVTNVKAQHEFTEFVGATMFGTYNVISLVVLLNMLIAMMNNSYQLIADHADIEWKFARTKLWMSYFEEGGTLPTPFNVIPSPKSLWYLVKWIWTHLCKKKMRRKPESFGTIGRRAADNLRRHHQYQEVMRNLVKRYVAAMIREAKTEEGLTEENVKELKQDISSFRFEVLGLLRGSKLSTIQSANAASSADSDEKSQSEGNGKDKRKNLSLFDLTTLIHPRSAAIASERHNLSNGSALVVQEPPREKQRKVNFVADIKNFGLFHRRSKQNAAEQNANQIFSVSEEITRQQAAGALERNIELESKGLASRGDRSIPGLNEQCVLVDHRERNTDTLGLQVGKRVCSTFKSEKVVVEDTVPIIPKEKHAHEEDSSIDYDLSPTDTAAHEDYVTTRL

[2] = BJeH cell viability loss – BJeH cells, dry powder, counter-screen for Ras selective lethality project, dose response (AID 493054); type: functional, cell-based
[3] = BJeHLT cell viability loss – BJeHLT cells, dry powder, counter-screen for Ras selective lethality project, dose response (AID 493052); type: functional, cell-based; conditions: Homo sapiens
Wee1-like protein kinase = Wee1-like protein kinase (Homo sapiens, UniProt P30291); experiment: HeLa cell cycle G2/M accumulation – FACS, mechanism study for Wee1 degradation inhibitor project, late-stage follow-up, panel member Wee1 Degradation (AID 2088)
[4] = target: G2/mitotic-specific cyclin-B1 (Homo sapiens, UniProt P14635); experiment: HeLa cell cycle G2/M accumulation – FACS, mechanism study for Wee1 degradation inhibitor project, late-stage follow-up, panel member Cyclin B Degradation (AID 2088)
Troponin, cardiac muscle = Troponin, cardiac muscle (Homo sapiens, UniProt P19429+P45379+P63316); experiment: Fluorescence-based biochemical high throughput dose response assay for activators of the calcium sensitivity of cardiac Regulated Thin Filaments (RTF). [Related pubchem assays (depositor defined):AID493008, AID493018, AID504382, AID504383]; type: protein-complex assay
[5] = target: Cyclin-dependent kinase 5/CDK5 activator 1 (Homo sapiens, UniProt Q00535); experiment: blockade of human CDK5 activity – biochemical, cherry-picked samples, set 2, dose response (AID 504545)
[6] = target: E3 ubiquitin-protein ligase Mdm2/Protein Mdm4 (Homo sapiens, UniProt O15151+Q00987); experiment: disruption of Mdm2/MdmX protein binding – luminescence detection, dose response (AID 504593); type: functional
Cytochrome P450 3A4 [7] = target: T2, Cytochrome P450 3A4 (Homo sapiens, UniProt P08684); conditions: Potency
[8] = target: Type-1 angiotensin II receptor (Homo sapiens, UniProt P30556); experiment: agonist activity at AGTR1 – cell-based, uHTS hits, selectivity assay for APJ receptor agonist project, dose response (AID 488865); type: functional;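 also: beta-arrestin recruitment to AT1 measured by enzyme fragment complementation luminescence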
Cytochrome P450 3A4 [9] = target: T2, Cytochrome P450 3A4
Cytochrome P450 2C19 = Cytochrome P450 2C19 (Homo sapiens, UniProt P33261); experiment: Cytochrome panel assay with activity outcomes. Panel member name: p450-cyp2c19 Compounds with AC50 equal or less than 10 uM are considered active; type: functional; conditions: read-out: AC50
[10] = Vero E6 cell cytotoxicity, dose response, cytotoxicity control for non-replicating M. tuberculosis project, secondary assay (AID 492998); type: functional, VeroE6; conditions: Vero C1008
[11] = THP-1 cell cytotoxicity, dose response, cytotoxicity control for non-replicating M. tuberculosis project (AID 489025); type: functional
cells = type: functional
Integrin alpha-4 = Integrin alpha-4 (Homo sapiens, UniProt P13612); experiment: allosteric modulators of alpha4 integrin VLA-4 – cell-based, LIBS antibody binding, flow cytometry, SAR follow-up (AID 488791); type: functional

Cc1cc(OCC(=O)NC2CCCCC2)ccc1Cl
EC50 [1]: 1.88 µM (active)

COc1ccc(N(C(=O)[C@@H](C)Cl)C(C(=O)NCCc2ccccc2)c2cccs2)cc1Cl (stereo partly specified)
AC50 [2]: > 454 µM (inactive) | AC50 [3]: > 454 µM (inactive)

CCc1ccc(NC(=O)CCCOc2cc(=O)n(C)c3ccccc23)cc1
EC50 (Wee1-like protein kinase): > 49.7 µM (inactive) | EC50 [4]: > 49.7 µM (inactive)

O=C(COC(=O)c1ccc(O)cc1)Nc1ccc2c(c1)OCCO2
EC50 (Troponin, cardiac muscle): > 71.5 µM (inactive)

Clc1cncc(Cl)c1N/N=C/c1ccncc1
AC50 [5]: 52.8 µM (active)

CC(C)c1cccc(=O)c(O)c1 [HINOKITIOL]
IC50 [6]: 3.58 µM (active) | AC50 (Cytochrome P450 3A4 [7]): 0.631 µM (inconclusive)

Clc1ccccc1CSc1nnc(-c2ccncc2)o1
EC50 [8]: > 100 µM (inactive) | AC50 (Cytochrome P450 3A4 [9]): 20 µM (inconclusive) | AC50 (Cytochrome P450 2C19): 0.126 µM (inconclusive)

O=c1c2ccccc2nc2cc(O)c(-c3ccccc3)nn12
CC50 [10]: 15.4 µM (active) | CC50 [11]: > 40 µM (active) | IC50 (cells): 4.34 µM (active)

Cc1ccc(NC(=O)c2cc(N3C(=O)CCC3=O)ccc2N2CCOCC2)cc1
EC50 (Integrin alpha-4): 16.4 µM (active)
